Here are results for 18 compounds from patent US6656911B2, “Serine protease inhibitors” (Cortech, Inc., priority 1994, dated 2003).

The subject of assay [1] is polymorphoneucleocyte (PMN). The experiment in a line: Extracellular Matrix (ECM) degradation assay. The class given is cell-based. To be noted: PMN's stimulated with opsonized zymosan, 4 hr at 37° C.; for inhibition at 1 µM / ECM DATA % Inhibition 1 uM: 1 uM inhibitor; for inhibition at 5 µM / ECM DATA % Inhibition 5 uM: 5 uM inhibitor. The method, then:
Forty-eight well plates on which extracellular matrix had been established were supplied to Cortech by Dr. Simon's group at the State University of New York at Stony Brook. Briefly, the plates were prepared as follows: R22 rat heart smooth muscle cells were seeded into wells at 2.5×10^4 cells/cm. The cells were fed every 4 days with Eagle's Minimal Essential Media supplemented with fetal bovine serum, tryptose phosphate broth, cefotaxime and streptomycin. At confluence, daily supplements of 50 ug/ml ascorbic acid were added for 8 to 10 days during the synthesis of the ECM layer. [^35S]sulfate and [^3H]proline were also added to the culture media to incorporate radiolabel into the matrix. Cells were later lysed with 25 mM NH4OH. Plates were washed three times with water and once with phosphate-buffered saline containing 0.02% NaN3. Plates were stored at 4° C. until use.
Matrix degradation assays were performed as follows: 0.40 ml of Hanks balance salt solution (HBSS) containing 1 or 5 uM test inhibitor (final concentration; diluted from DMSO stock solution; <2% DMSO final concentration) was added to the wells. After 30 minutes, 50 ul of a polymorphoneucleocyte (PMN) suspension was added resulting in 5×10^5 cells/well. PMN's were stimulated with opsonized zymosan. Zymosan particles were washed and suspended in 0.5 ml human serum for 1 hr at 37° C., vortexing every 15 min. The particles were then washed three times with HBSS and added to wells at a ratio of 10 particles/PMN in a volume of 50 ul. After a 4 hr incubation at 37° C., a 100 ul aliquot of the supernatant was withdrawn for scintillation counting. Following removal of the remaining supernatant, the residual ECM was solubilized with 0.5 ml 2M NaOH. The amount of tritium in this solubilized ECM was accessed by scintillation. ECM degradation data are expressed as (soluble counts released/total ECM counts)—(basal counts released without PMN's/total ECM counts).

Assay [2] deals with T1, human neutrophil elastase (HNE) (Homo sapiens, UniProt P08246).
T1 sequence (P08246 30-267): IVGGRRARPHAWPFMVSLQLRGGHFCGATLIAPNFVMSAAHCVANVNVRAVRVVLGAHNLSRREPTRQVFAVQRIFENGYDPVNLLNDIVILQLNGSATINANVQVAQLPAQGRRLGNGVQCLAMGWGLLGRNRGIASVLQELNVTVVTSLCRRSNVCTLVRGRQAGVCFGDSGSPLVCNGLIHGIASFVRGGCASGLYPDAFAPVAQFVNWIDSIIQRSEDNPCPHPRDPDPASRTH
The experiment in a line: HNE Ki of CE compounds, tested as described in WO 96/16080. To be noted: read-out: HNE Ki. The class given is biochemical.

One may read the inhibition as the drop in the measured response relative to a control, in per cent. Low values mean a weak effect, high ones a strong effect. As usually defined, the Ki is a dissociation constant, usually derived from enzyme kinetics or from competition with a known ligand. With `Cc1cccc(Cc2nnc(C(=O)[C@@H](NC(=O)CN3C(=O)N[C@@H](Cc4ccccc4)C3=O)C(C)C)o2)c1` [CE2154, 5-(S)-Benzyl-2,4-imidazolidinedione-N-[1-(2-[5-(3-methylbenzyl)-1,3,4-oxadiazolyl]carbonyl)-2-(S)-methylpropyl]acetamide], in assay [1], the inhibition at 1 µM is 54.6% and the inhibition at 5 µM turned out to be 65.4%. For the same compound, the Ki in assay [2] was 10 nM.
In the same order, the values of `Cc1cccc(Cc2nnc(C(=O)[C@@H](NC(=O)[C@@H]3CCCN3C(=O)[C@@H](NC(=O)c3cccnc3)C(C)C)C(C)C)o2)c1` [CE2161, (Pyridyl-3-carbonyl)-L-valyl-N-[1-(2-[5-(3-methylbenzyl)-1,3,4-oxadiazolyl]carbonyl)-2-(S)-methylpropyl]-L-prolinamide] are 25%, 55% and 0.082 nM.
As for `Cc1cccc(Cc2nnc(C(=O)C(NC(=O)CN3C(=O)[C@@H](Cc4ccccc4)N(CCN4CCOCC4)C3=O)C(C)C)o2)c1` (stereo partly drawn) [CE2173, 1-(3-Morpholinoethyl)-5-(R)-benzyl-2,4-imidazolidinedione-N-[1-(2-[5-(3-methylbenzyl)-1,3,4-oxadiazolyl]carbonyl)-2-(R,S)-methylpropyl]acetamide], in assay [1], the “ECM DATA % Inhibition 1 uM” value turned out to be 35.9% and the “ECM DATA % Inhibition 5 uM” value is reported as 47.1%. For the same compound, in assay [2], the Ki is 6.5 nM.
In the same order, the values of `Cc1cccc(Cc2nnc(C(=O)C(NC(=O)CN3C(=O)N(Cc4ccccc4)C(=O)[C@@H]3Cc3ccccc3)C(C)C)o2)c1` (stereo partly drawn) [CE2191, 1-Benzyl-4-(S)-benzyl-2,5-imidazolidinedione-N-[1-(2-[5-(3-methylbenzyl)-1,3,4-oxadiazolyl]carbonyl)-2-(R,S)-methylpropyl]acetamide] are 29.35%, 30.5% and 85 nM.
For `Cc1cccc(Cc2nnc(C(=O)C(NC(=O)CN3C(=O)C(c4ccccc4)N(CCN4CCOCC4)C3=O)C(C)C)o2)c1` [CE2192, 1-(N-Morpholinoethyl)-5-(R,S)-phenyl-2,4-imidazolidinedione-N-[1-(2-[5-(3-methylbenzyl)-1,3,4-oxadiazolyl]carbonyl)-2-(R,S)-methylpropyl]acetamide], in assay [1], the inhibition at 1 µM was 40.8% and 5 µM produced 49.7% inhibition. Moreover, the Ki in assay [2] stood at 7.3 nM.
On to `Cc1cccc(Cc2nnc(C(=O)[C@@H](NC(=O)CN3C(=O)NC(c4ccncc4)(N4C(=O)CCC4=O)C3=O)C(C)C)o2)c1` (stereo partly drawn) [CE2206, [4-(R,S)-(4-pyridyl)-4-(R,S)-N-succinimidyl-1-2,5-imidazolidinedione-N-[1-2-[5-(3-methylbenzyl)-1,3,4-oxadiazolyl]carbonyl)-2-(S)-methylpropyl]acetamide], for which, in assay [1], the “ECM DATA % Inhibition 1 uM” value was 47.4% and the “ECM DATA % Inhibition 5 uM” value amounted to 62.3%. Moreover, the inhibition constant (Ki) in assay [2] came out at 8.7 nM.
In the same order, the values of `CCCCc1nnc(C(=O)C(NC(=O)CN2C(=O)C(N)N=C(c3ccccn3)c3ccccc32)C(C)C)o1` [CE2218, (R,S)-3-Amino-2-oxo-5-(2-pyridyl)-1,4-benzodiazepine-N-[1-(2-[5-(3-methylpropyl)-1,3,4-oxadiazolyl]carbonyl)-2-(R,S)-methylpropyl]acetamide] are 30.5%, 33.15% and 1.6 nM.
In assay [1], `CC1=NC(N)C(=O)N(CC(=O)NC(C(=O)c2nnc(Cc3cccc(C)c3)o2)C(C)C)c2ccccc21` [CE2226, (R,S)-3-Amino-2-oxo-5-methyl-1,4-benzodiazepine-N-[1-(2-[5-(3-methylbenzyl)-1,3,4-oxadiazolyl]carbonyl)-2-(R,S)-methylpropyl]acetamide] displayed an inhibition at 1 µM of 27.6% and an inhibition at 5 µM of 52.2%. In assay [2], the Ki was found to be 10.3 nM.
In the case of `Cc1cccc(Cc2nnc(C(=O)C(NC(=O)CN3C(=O)C(N)N=C(c4ccccc4Cl)c4cc(Cl)ccc43)C(C)C)o2)c1` [CE2229, (R,S)-3-Amino-2-oxo-5-(2-chlorophenyl)-1,4-(2′-chlorobenzodiazepine)-N-[1-(2-[5-(3-methylbenzyl)-1,3,4-oxadiazolyl]carbonyl)-2-(R,S)-methylpropyl]acetamide], in assay [1], the “ECM DATA % Inhibition 1 uM” value stood at 31.25% and the “ECM DATA % Inhibition 5 uM” value is on record as 48.2%. In assay [2], the inhibitory constant (Ki) amounted to 9.5 nM.
For `Cc1cccc(Cc2nnc(C(=O)[C@@H](NC(=O)Cn3c(-c4ccccn4)nc4ccccc43)C(C)C)o2)c1` [CE2234, 2-(2-Pyridyl)-benzimidazole-N-[1-(2-[5-(3-methylbenzyl)-1,3,4-oxadiazolyl]carbonyl)-2-(S)-methylpropyl]acetamide], in assay [1], the inhibition at 1 µM came to 39.7% and the inhibition at 5 µM was 35%. Besides, the Ki in assay [2] turned out to be 796 nM.
On to `COc1cc2c(cc1OC)N(CC(=O)NC(C(=O)c1nnc(Cc3cccc(C)c3)o1)C(C)C)C(=O)C(N)N=C2C` [CE2235, (R,S)-3-Amino-2-oxo-5-methyl-1,4-(2′,3′-dimethoxybenzodiazepine)-N-[1-(2-[5-(3-methylbenzyl)-1,3,4-oxadiazolyl]carbonyl)-2-(R,S)-methylpropyl]acetamide], for which, in assay [1], the “ECM DATA % Inhibition 1 uM” value came out at 19.75% and the “ECM DATA % Inhibition 5 uM” value was 13.25%. In addition, the Ki in assay [2] amounted to 9.5 nM.
The corresponding values for `Cc1ccc(C2=NCC(=O)N(CC(=O)N[C@H](C(=O)c3nnc(Cc4cccc(C)c4)o3)C(C)C)c3ccccc32)cc1` [CE2242, 2-Oxo-5-phenyl-1,4-(4′-methylbenzodiazepine)-N-[1-(2-[5-(3-methylbenzyl)-1,3,4-oxadiazolyl]carbonyl)-2-(S)-methylpropyl]acetamide] are 29.4%, 40.7% and 27 nM.
Turning to `COc1ccccc1C1=NCC(=O)N(CC(=O)N[C@H](C(=O)c2nnc(Cc3cccc(C)c3)o2)C(C)C)c2ccccc21` [CE2250, 2-Oxo-5-(2-methoxyphenyl)-1,4-benzodiazepine-N-[1-(2-[5-(3-methylbenzyl)-1,3,4-oxadiazolyl]carbonyl)-2-(S)-methylpropyl]acetamide], in assay [1], the inhibition at 1 µM was determined as 27.4% and 5 µM produced 48.6% inhibition. Also, in assay [2], the Ki came out at 6.9 nM.
Regarding `Cc1cccc(Cc2nnc(C(=O)[C@@H](NC(=O)CN3C(=O)N[C@H](Cc4ccc(O)cc4)C3=O)C(C)C)o2)c1` [CE2255, 4-(R)-(4-Hydroxybenzyl)-2,5-imidazolidinedione-N-[1-(2-[5-(3-methylbenzyl)-1,3,4-oxadiazolyl]carbonyl)-2-(S)-methylpropyl]acetamide], in assay [1], the “ECM DATA % Inhibition 1 uM” value turned out to be 20.7% and the “ECM DATA % Inhibition 5 uM” value came to 42%. Moreover, the Ki in assay [2] stood at 18 nM.
The corresponding values for `Cc1cccc(Cc2nnc(C(=O)[C@@H](NC(=O)CN3C(=O)N[C@H](c4ncc[nH]4)C3=O)C(C)C)o2)c1` [CE2257, 4-(R)-(2-Imidazolyl)-2,5-imidazolidinedione-N-[1-(2-[5-(3-methylbenzyl)-1,3,4-oxadiazolyl]carbonyl)-2-(S)-methylpropyl]acetamide] are 48.3%, 61.4% and 30 nM.
In the same order, the values of “(R,S)-3-Amino-2-oxo-5-methyl-1,4-(1-thiophenodiazepine)-N-[1-(2-[5-(3-methylbenzyl)-1,3,4-oxadiazolyl]carbonyl)-2-(S)-methylpropyl]acetamide [CE2236]” are 31.9%, 31.75% and 7.1 nM.
The corresponding values for “(R,S)-3-Amino-2-oxo-5-methyl-1,4-(2′,3′-methylenedioxy-benzodiazepine)-N-[1-(2-[5-(3-methylbenzyl)-1,3,4-oxadiazolyl]carbonyl)-2-(R,S)-methylpropyl]acetamide [CE2225]” are 30.85%, 43.45% and 8.2 nM.
Regarding “(R,S)-3-Amino-2-oxo-5-phenyl-1,4-(2′-chlorobenzodiazepine)-N-[1-(2-[5-(3-methylbenzyl)-1,3,4-oxadiazolyl]carbonyl)-2-(R,S)-methylpropyl]acetamide [CE2223]”, in assay [1], the “ECM DATA % Inhibition 1 uM” value worked out at 34.15% and the “ECM DATA % Inhibition 5 uM” value amounted to 36.15%. Moreover, the Ki in assay [2] is 0.93 nM.
